# Reference: article PMC10504053, “First-in-Human PET Imaging of [^18F]SDM-4MP3: A Cautionary Tale” (Molecular Imaging, 2023)
# Legend:
# SV2A = molecular target: SV2A; parameters: method as in PMID 34722967, PMID 24446373; conditions: affinity to SV2A, in vitro binding; cited from earlier work
# [1] = molecular target: T1, synaptic vesicle protein 2A (SV2A) (Rattus norvegicus, UniProt Q02563); assay: Preclinical PET imaging in rats (whole-brain uptake); assay type: in vivo, Sprague-Dawley rats; conditions: for initial peak uptake in the rodent brain: rat whole-brain time-activity curve
# T1 construct: from tissue; host or cells: brain of living Sprague-Dawley rats (in vivo PET)
# Experimental: Preclinical PET imaging studies were approved by the Animal Care Committee at CAMH (Animal Use Protocol #838). Six adult Sprague-Dawley rats were scanned for 120 min on either a Mediso nanoScan PET/MR 3 T or PET/CT scanner (Budapest, Hungary), and the images were analyzed using VivoQuant® software (version 4.1, Invicro LLC, Needham, MA, USA), as described previously. Five rats (3 M/2F, 528 ± 46 g) were used for the baseline [^18F]SynVesT-1 scans (injected dose: 13.3 ± 3.2 MBq; molar activity: 157 ± 64 GBq/μmol; mass injected: 0.22 ± 0.08 nmol/kg), with two of the male rats also scanned after injection of the blocking drug levetiracetam (cat#L1784, LKT Laboratories Inc, St Paul, MN, USA) at 30 mg/kg (i.v., 15 min before the tracer; injected dose: 10.2 ± 0.1 MBq; molar activity: 78 ± 15 GBq/μmol; injected mass: 0.24 ± 0.04 nmol/kg). One female rat (273 g) was used for the 120 min scan with [^18F]SDM-4MP3 (injected dose: 13.0 MBq; molar activity: 125.5 GBq/μmol; injected mass: 0.38 nmol/kg). Acquired list mode data were sorted into thirty-nine 3-dimensional (3D) (3 × 5 s, 3 × 15 s, 3 × 20 s, 7 × 60 s, 17 × 180 s, and 6 × 600 s) true sinograms (ring difference 84) and reconstructed with a 2D filtered back-projection algorithm with corrections for detector geometry, efficiencies, attenuation, and scatter and dead time and were decay-corrected to the start of acquisition. Static images of the complete emission acquisition (0-120 min) were reconstructed with the manufacturer's proprietary iterative 3D algorithm (6 subsets and 4 iterations). SUVs were calculated by normalizing regional radioactivity for injected radioactivity and body weight.
# [2] = Arterial plasma radiometabolite analysis (column-switching HPLC) in human participants; assay type: in vivo; conditions: human arterial plasma parent fraction, compared with [18F]SynVesT-1
# Experimental: The arterial line was placed into the radial artery by a qualified respiratory therapist. Up to 160 mL of arterial blood was collected via automated blood sampler (ABSS, Comecer PBS-101) and via manual samples for plasma metabolite correction. The ABSS protocol was started ~15 s after emission scan start, and pump speed was set to 300 mL/h, to reduce dispersion in ABSS lines during maximum rate of change of arterial activity concentration, at 1 s sampling period for 5 min and 2 s sampling period for 136 s. Pump speed was decreased to 180 mL/h at a sampling period of 5 s for the following 360 s and a sampling period of 10 s for 540 s, for a total sampling time of 22 min and 16 s. […]
# Baseline whole blood samples were centrifuged at 3100 RPM at room temperature for 5 min to extract plasma. […] Each subsequent manual sample was centrifuged at 3900 rpm at 4°C for 5 min, and 0.3 mL of whole blood and 0.3 mL of plasma were extracted and measured on a gamma counter (Wizard 2480, Perkin Elmer, Turku, Finland) to quantify activity concentration.
# (1) Column-Switching HPLC. […] Samples were initially analyzed in capture mode with the capture solvent flow rate of 1.8 mL/min for 4 min before switching to analysis mode with the analysis solvent running at 1.8 mL/min for an additional 12 min. […]
# [3] = molecular target: T2, synaptic vesicle protein 2A (SV2A) (Homo sapiens, UniProt Q7L0J3); assay: Human brain PET imaging (SUV, SUVR, 1-TCM VT with arterial input function); assay type: in vivo; conditions: for VT (SE %) from fitting of 1-TCM: human brain PET; for time of peak brain uptake: P1 ([18F]SDM-4MP3) vs P3 ([18F]SynVesT-1); for SUVR: 60-90 min, centrum semiovale reference
# T2 construct: from tissue; host or cells: brain of living human participants (in vivo PET)
# Source text: All human components of the study were approved according to the Research Ethics Board for Human Subjects at CAMH (CTA 125, REB 075/2019). All participants were recruited from the community and provided written informed consent. Participant inclusion criteria were self-report of good health. Exclusion criteria included any history of neurological or psychiatric disorder; cognitive impairment according to MoCA assessment (score less than 26); pregnancy and/or nursing; and disorders of coagulation, blood, or ongoing use of anticoagulant medication. Each participant's height, weight, current medications, and smoking status was recorded. Participants abstained from taking […] medications, including aspirin [13], for 24 hours prior to the PET exam (see Table 1).
# Participants were scanned on a 5-ring GE Discovery MI PET/CT (GE Healthcare Technologies, Chicago, Illinois). Participants 1 and 2 (P1 and P2) were scanned with [^18F]SDM-4MP3 (the radiopharmaceutical synthesized from the ABX precursor), and [^18F]SynVesT-1 (synthesized from the Yale precursor) was used for PET imaging of participants 3 and 4 (P3 and P4). A thermoplastic facemask (Tru-Scan Imaging, Annapolis) was used to restrict head motion within the PET scanner bore. CT was used to acquire a scout scan, followed by a low-dose scan for attenuation correction. The radiopharmaceutical (target dose 185 MBq ± 10%, molar activity > 11 GBq/μmol) was delivered starting 30 s after the initiation of the emission scan, with a smooth bolus injection by hand (2-5 s) via intravenous line placed in the antecubital vein, followed by a 10 mL saline flush to clear residual activity from the line. Emission data was acquired for 120-125 min, allowing up to 5 min for a background frame sampled at 1 s intervals to determine the precise starting time of brain uptake, and used to establish the duration of the background frame inserted prior to dynamic frame reconstruction. Data acquired after the start of brain uptake was reconstructed into frames using FORE rebinning and filtered back-projection, using a Hanning filter at the Nyquist frequency to create a dynamic image set. Frame definitions were 30 s × 3, 60 s × 3, 120 s × 2, 300 s × 22 (total = 120 min). For use as a reference for motion correction, images were also reconstructed without attenuation correction using an iterative method with 4 subsets and 6 iterations. All reconstructions were performed using vendor algorithms on the GE DMI console. […] A spatial resolution of approximately 5.8 × 5.8 × 5.6 mm was achieved (measured in accordance with National Electrical Manufacturers Association NU 2-2007 standards). The mean injected activity was 192.7 MBq for [^18F]SDM-4MP3 and 184.3 MBq for [^18F]SynVesT-1 (Table 1).
# The arterial line was placed into the radial artery by a qualified respiratory therapist. Up to 160 mL of arterial blood was collected via automated blood sampler (ABSS, Comecer PBS-101) and via manual samples for plasma metabolite correction. The ABSS protocol was started ~15 s after emission scan start, and pump speed was set to 300 mL/h, to reduce dispersion in ABSS lines during maximum rate of change of arterial activity concentration, at 1 s sampling period for 5 min and 2 s sampling period for 136 s. Pump speed was decreased to 180 mL/h at a sampling period of 5 s for the following 360 s and a sampling period of 10 s for 540 s, for a total sampling time of 22 min and 16 s. Manual samples were collected at baseline, 2.5, 7, 12, 15, 20, 30, 45, 60, 90, and 110 min relative to emission scan start into PTFE tubes, followed by a saline flush for all except 2.5- and 7-min samples to avoid discontinuities in arterial data during peak uptake.
# (1) Image Registration and Region of Interest. […]
# [4] = human brain time-activity curves
# T2 sequence (Q7L0J3 whole entry): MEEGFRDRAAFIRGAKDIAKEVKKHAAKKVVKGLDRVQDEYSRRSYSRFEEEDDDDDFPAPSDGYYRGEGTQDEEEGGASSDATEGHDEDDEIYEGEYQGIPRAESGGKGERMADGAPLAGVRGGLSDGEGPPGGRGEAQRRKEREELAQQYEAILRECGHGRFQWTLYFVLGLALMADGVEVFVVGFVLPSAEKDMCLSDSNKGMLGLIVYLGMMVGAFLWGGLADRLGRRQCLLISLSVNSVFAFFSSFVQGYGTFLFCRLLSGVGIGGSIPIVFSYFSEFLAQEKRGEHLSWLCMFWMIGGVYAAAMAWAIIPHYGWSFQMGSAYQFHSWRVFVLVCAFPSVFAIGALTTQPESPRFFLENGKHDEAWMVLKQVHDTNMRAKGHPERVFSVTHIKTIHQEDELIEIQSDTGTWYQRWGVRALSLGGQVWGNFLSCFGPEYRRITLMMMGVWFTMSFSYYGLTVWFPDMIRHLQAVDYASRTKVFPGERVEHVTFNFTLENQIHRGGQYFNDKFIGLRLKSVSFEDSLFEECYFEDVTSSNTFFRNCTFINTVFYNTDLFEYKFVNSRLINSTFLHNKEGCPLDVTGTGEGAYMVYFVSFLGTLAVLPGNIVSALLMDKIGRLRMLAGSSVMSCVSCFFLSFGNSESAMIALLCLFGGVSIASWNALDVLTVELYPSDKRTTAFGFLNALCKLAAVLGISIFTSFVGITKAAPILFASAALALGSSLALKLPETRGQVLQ
# T1 sequence (Q02563 whole entry): as the sequence (Q7L0J3 whole entry) above, with D53E, S62A, T71A, E144D, A154T, G440S, S482A, I572V, M634L counted along it
structure (smiles),measurement,setting,value
Cc1ccncc1CN1CC(c2cc(F)cc(F)c2)CC1=O (centres unmarked) [SDM-4MP3],Ki,SV2A,291 nM
Cc1cnccc1CN1C[C@@H](c2cc(F)cc(F)c2)CC1=O [SynVesT-1],Ki,SV2A,3.1 nM
Cc1ccncc1CN1C[C@@H](c2cc(F)cc([18F])c2)CC1=O [[^18F]SDM-4MP3],initial peak uptake in the rodent brain,[1]; baseline,3.2 SUV
same,brain uptake in 0-120 min static image,"[1]; rat, barely above tissues outside of the brain",very limited brain uptake
same,whole-brain TAC clearance,"[1]; rat, vs. [18F]SynVesT-1",much faster clearance
same,brain uptake relative to blocked [18F]SynVesT-1 scans,"[1]; rat, comparator scans after levetiracetam 30 mg/kg i.v. 15 min before tracer",lower than [^18F]SynVesT-1 scans performed under preblocking conditions with levetiracetam
same,rate of radiometabolism,[2],slightly slower
same,VT (SE %) from fitting of 1-TCM,"[3]; Centrum semiovale, participant P1",1.6 (1.8%)
same,VT (SE %) from fitting of 1-TCM,"[3]; Centrum semiovale, participant P2",1.7 (2.0%)
same,VT (SE %) from fitting of 1-TCM,"[3]; Cerebellum, participant P1",1.6 (1.4%)
same,VT (SE %) from fitting of 1-TCM,"[3]; Frontal cortex, participant P1",1.8 (1.6%)
same,VT (SE %) from fitting of 1-TCM,"[3]; Frontal cortex, participant P2",1.9 (3.4%)
same,VT (SE %) from fitting of 1-TCM,"[3]; Hippocampus, participant P1",1.8 (1.4%)
same,VT (SE %) from fitting of 1-TCM,"[3]; Hippocampus, participant P2",1.8 (3.4%)
same,VT (SE %) from fitting of 1-TCM,"[3]; Putamen, participant P1",2.0 (1.3%)
same,VT (SE %) from fitting of 1-TCM,"[3]; Putamen, participant P2",2.1 (3.4%)
same,initial brain penetration (SUV),"[3]; human brain time-activity curves, P1",~ 7 SUV
same,clearance from brain,"[3]; human brain time-activity curves, in contrast to [18F]SynVesT-1",rapid clearance from brain
same,time of peak brain uptake,[3]; [4],2.5 min
same,factor by which VT estimates were lower than expected,"[3]; human, one-tissue compartment model, vs expected for [18F]SynVesT-1",> 10
same,SUVR,"[3]; throughout the brain, human",under 2
"Cc1cnccc1CN1C[C@@H](c2cc(F)cc([18F])c2)CC1=O [[^18F]SynVesT-1, reference compound]",initial peak uptake in the rodent brain,[1]; baseline,7.6 ± 0.7 SUV
same,brain uptake SUVs in static image,"[1]; rat, 0-120 min static image, baseline",~8 SUV
same,VT (SE %) from fitting of 1-TCM,"[3]; Centrum semiovale, participant P3",2.9 (1.4%)
same,VT (SE %) from fitting of 1-TCM,"[3]; Centrum semiovale, participant P4",3.5 (7.7%)
same,VT (SE %) from fitting of 1-TCM,"[3]; Cerebellum, participant P3",13.1 (0.7%)
same,VT (SE %) from fitting of 1-TCM,"[3]; Cerebellum, participant P4",16.3 (4.9%)
same,VT (SE %) from fitting of 1-TCM,"[3]; Frontal cortex, participant P3",15.4 (0.4%)
same,VT (SE %) from fitting of 1-TCM,"[3]; Frontal cortex, participant P4",18.3 (5.1%)
same,VT (SE %) from fitting of 1-TCM,"[3]; Hippocampus, participant P3",14.9 (0.6%)
same,VT (SE %) from fitting of 1-TCM,"[3]; Hippocampus, participant P4",17.0 (6.2%)
same,VT (SE %) from fitting of 1-TCM,"[3]; Putamen, participant P3",16.1 (0.5%)
same,VT (SE %) from fitting of 1-TCM,"[3]; Putamen, participant P4",22.23 (4.7%)
same,SUVR,"[3]; cortical regions, human",greater than 7
same,time of peak brain uptake,[3]; [4],20 min
